Results: US20040072992A1, “Novel peptide capable of specifically acting on biological membrane” (priority 2002, published 2004)
Where “and” joins values, the source holds several entries; their conditions need not be identical. Identical values can stand only once. Where no end group is shown, it is not given here.

Tests used:
S. aureus JCM2413 = details: JCM2413, 18 h
B. subtilis IFO13722 = details: IFO13722, 18 h
E. coli JCM1649 = details: JCM1649, 18 h
E. coli CE-273 = details: CE-273, 18 h
S. enteritidis ATC14028 = details: ATC14028, 18 h
[1] = Anti-cancer activity, HL60 cell; format: cell-based, human; details: sulforhodamine B
Procedure: (§1) Anti-cancer activity was evaluated using a method complying with an anti-cancer agent screening method (1990) using a human cancer cell panel which has been carried out by U.S. National Cancer Institute (NCI). Cells employed in experiments were from the following three cell lines: HL60 cell (cell line derived from human leukemia); HeLa cell (cell line derived from human uterine cancer); and HCT116 cell (cell line derived from human large intestine cancer). Media suitable for use of these cells are RPMI-1640 medium containing 10% FCS; a MEM medium containing 10% CS; and McCoy5A medium containing 10% FCS, respectively.
(§2) Cells suspended in themedium wereplated into 96-well plates at a concentration of 1×10^5 cells/cm^2, followed by incubation overnight. Peptide solutions containing various concentrations of the peptide of the present invention were added to the plates, followed by incubation at 37° C. for 2 days in a CO2 incubator. […]

E. coli CR-3 = details: CR-3, 18 h
B. sereus IFO3457 = details: 18 h
[2] = Anti-cancer activity, HeLa cell; format: cell-based, human; details: sulforhodamine B
Procedure: as §1, §2

S. enteritidis ATCC1891 = details: ATCC1891, 18 h
[3] = Anti-cancer activity, HCT116 cell; format: cell-based, human; details: sulforhodamine B
Procedure: as §1, §2

S. aureus IFO13276 = details: IFO13276, 18 h
[4] = Anti-cancer activity, HCT-15; format: cell-based, human; details: HCT-15, large intestine cancer
Procedure: as §1
(§3) Cells suspended in themedium wereplated into 96-well plates at a concentration of 1×10^5 cells/cm^2, followed by incubation overnight. Peptide solutions containing various concentrations of the peptide of the present invention were added to the plates, followed by incubation at 37° C. for 2 days in a CO2 incubator. During culturing, the growth of the cells was measured by colorimetry using sulforhodamine B and the peptide concentration was categorized into any of GI50 which is the concentration at which the growth is inhibited by 50% as compared to the control; TGI which is the concentration at which the number of cells is seemingly not increased or decreased from the time of addition of the peptide of the present invention, i.e., the growth is suppressed to the same number of cells as when the peptide was added: and LC50 which is the concentration at which the number of cells is decreased to 50% of that at the time of addition of the peptide.
(§4) Thereafter, various cancer cells were employed to confirm the anti-cancer activity of mast21R. Each cancer cell was cultured in RPMI-1640 medium containing 10% FCS.

[5] = Anti-cancer activity, EBC-1; format: cell-based, human; details: EBC-1, lung cancer
Procedure: as §1, §3, §4

[6] = Anti-cancer activity, 5637 cell; format: cell-based, human; details: bladder cancer
Procedure: as §1, §3, §4

[7] = Anti-cancer activity, SH-10-TC; format: cell-based, human
Procedure: as §1, §3, §4

[8] = Anti-cancer activity, colo205; format: cell-based, human; details: colo205, large intestine cancer
Procedure: as §1, §3, §4

[9] = Anti-cancer activity, SR-BR-3; format: cell-based, human; details: SR-BR-3, breast cancer
Procedure: as §1, §3, §4

[10] = Anti-cancer activity, A549; format: cell-based, human; details: A549, lung cancer
Procedure: as §1, §3, §4

[11] = Anti-cancer activity, DU-145; format: cell-based, human; details: DU-145, prostate cancer
Procedure: as §1, §3, §4

[12] = Anti-cancer activity, LK-2; format: cell-based, human; details: LK-2, lung cancer
Procedure: as §1, §3, §4

[13] = Anti-cancer activity, NIH OVCAR-3; format: cell-based, human; details: NIH OVCAR-3, ovarian cancer
Procedure: as §1, §3, §4

[14] = Anti-cancer activity, A172; format: cell-based, human; details: A172, glioblastoma
Procedure: as §1, §3, §4

[15] = Anti-cancer activity, EJ-1 cell; format: cell-based, human
Procedure: as §1, §3, §4

[16] = Anti-cancer activity, D98-AH2; format: cell-based, human
Procedure: as §1, §3, §4

[17] = Anti-cancer activity, PC-3; format: cell-based, human; details: PC-3, prostate cancer
Procedure: as §1, §3, §4

[18] = system: Erwinia carotovora (NBRC3380); test: Antibacterial activity against plant pathogenic bacteria; format: cell-based; details: 30° C., 16 to 24 h
Procedure: Mast21, mast21R, ALR6, and KVL6 were evaluated with respect to antibacterial activity against Erwinia carotovora (NBRC3380) which is a plant pathogenic bacterium causing soft rot. Specifically, a minimum concentration of a peptide capable of inhibiting the growth of bacteria was determined using microtiter plates. Bacteria were cultured for 16 h in culture medium (Difco Nutrient Broth 8 g, NaCl 5 g/L, pH 7.0), followed by measurement of absorbance at A600. Each bacterial strain was diluted into a final concentration of 1×10^6 CFU/ml. For each peptide, 5 mM aqueous solution was prepared, and thereafter, was subjected to serial dilution. The peptide serial dilutions (50 μl for each) were added to respective wells of the microplate to which 50 μl of the bacterial solution had been added (final cell concentration: 5×10^5 CFU/ml, final peptide concentration: 0 to 50 μM). […] The unit of concentration described in Table 9 is μM.

[19] = Anti-cancer activity, MCF7; format: cell-based, human
Procedure: as §1, §3, §4

[20] = Anti-cancer activity, KATO III cell; format: cell-based, human
Procedure: as §1, §3, §4

[21] = Anti-cancer activity, ACHN; format: cell-based, human
Procedure: as §1, §3, §4

erythrocytes = details: red cells of human, 100 μM
[22] = read-out: LC50 (the source's name)
[23] = 2 days, read-out: LC50 (the source's name)

## KVLKVLKVLKVLKVL [KVL5, KVLKVLKVLKVLKVL]
S. aureus JCM2413
  MIC: 200 µM
B. subtilis IFO13722
  MIC: 25 µM
E. coli JCM1649
  MIC: 12.5 µM
E. coli CE-273
  MIC: 6.3 µM
S. enteritidis ATC14028
  MIC: 100 µM
[1]; human, HL60 cells (leukemia cell line)
  LC50 at 2 days: > 100 µM
E. coli CR-3
  MIC: 25 µM
B. sereus IFO3457
  MIC: 200 µM
[2]; human, HeLa cells (uterine cancer cell line), read-out: LC50
  CC50 at 2 days: > 100 µM
S. enteritidis ATCC1891
  MIC: 25 µM
[3]; human, read-out: LC50
  CC50 at 2 days: > 100 µM
S. aureus IFO13276
  MIC: 100 µM

## KVLKVLKVLKVLKVLKVL [KVL6, KVLKVLKVLKVLKVLKVL]
[4]; human, HCT-15 cells (large intestine cancer cells), read-out: LC50
  CC50 at 2 days: 80 µM
[5]; human, EBC-1 cells (lung cancer cells), read-out: LC50
  CC50 at 2 days: > 100 µM
[6]; human, read-out: LC50
  CC50 at 2 days: 100 µM
[7]; human, SH-10-TC cells (stomach cancer cells)
  LC50 at 2 days: 60 µM
[8]; human, read-out: LC50
  CC50 at 2 days: 100 µM
[9]; human, SR-BR-3 cells (breast cancer cells), read-out: LC50
  CC50 at 2 days: 100 µM
[10]; human, read-out: LC50
  CC50 at 2 days: 70 µM
[11]; human, read-out: LC50
  CC50 at 2 days: > 100 µM
[12]; human, LK-2 cells (lung cancer cells), read-out: LC50
  CC50 at 2 days: > 100 µM
[13]; human, NIH OVCAR-3 cells (ovarian cancer cells), read-out: LC50
  CC50 at 2 days: > 100 µM
[14]; human, read-out: LC50
  CC50 at 2 days: > 100 µM
[15]; human, EJ-1 cells (bladder cancer cells), read-out: LC50
  CC50 at 2 days: 90 µM
[16]; human, D98-AH2 cells (uterine cancer cells), read-out: LC50
  CC50 at 2 days: > 100 µM
[17]; human, PC-3 cells (prostate cancer cells), read-out: LC50
  CC50 at 2 days: > 100 µM
[18]
  MIC: 3.1 μM and 3.2 μg/ml
[19]; human, MCF7 cells (breast cancer cells)
  LC50 at 2 days: 100 µM
[20]; human, KATO III cells (stomach cancer cells), read-out: LC50
  CC50 at 2 days: 100 µM
[21]; human, ACHN cells (kidney cancer cells), read-out: LC50
  CC50 at 2 days: 80 µM

## RNWRGIAGMARRLLGRNWRLM [mast21R]
[4]; [22]
  CC50: 30 µM
[5]; [22]
  CC50: 70 µM
S. aureus JCM2413
  MIC: 6.25 µM
B. subtilis IFO13722
  MIC: 1.56 µM
E. coli JCM1649
  MIC: 3.1 µM
E. coli CE-273
  MIC: 3.1 µM
[6]; [22]
  CC50: 50 µM
[7]; stomach cancer
  LC50: 60 µM
[8]; [22]
  CC50: 50 µM
S. enteritidis ATC14028
  MIC: 3.1 µM
[9]; [22]
  CC50: 90 µM
[10]; [22]
  CC50: 50 µM
[11]; [22]
  CC50: 90 µM
[12]; [22]
  CC50: > 100 µM
[13]; [22]
  CC50: 80 µM
[14]; [22]
  CC50: 50 µM
[1]; 2 days
  LC50: 20 µM
[15]; bladder cancer, read-out: LC50 (the source's name)
  CC50: 20 µM
[16]; D98-AH2, uterine cancer, read-out: LC50 (the source's name)
  CC50: 50 µM
[17]; [22]
  CC50: 60 µM
E. coli CR-3
  MIC: 1.6 µM
B. sereus IFO3457
  MIC: 3.1 µM
[2]; [23]
  CC50: 20 µM
[18]
  MIC: 1.6 μM and 2 μg/ml
[19]; MCF7, breast cancer
  LC50: 90 µM
S. enteritidis ATCC1891
  MIC: 3.1 µM
[20]; stomach cancer, read-out: LC50 (the source's name)
  CC50: 50 µM
[3]; [23]
  CC50: 2 µM
S. aureus IFO13276
  MIC: 6.25 µM
erythrocytes
  Hemolytic property (relative value): 13%
[21]; kidney cancer, read-out: LC50 (the source's name)
  CC50: 30 µM

## RVGINWKGIAAMAKKII [RVG-mastX, RVG INWKGIAAMAKKII]
S. aureus JCM2413
  MIC: 200 µM
B. subtilis IFO13722
  MIC: 50 µM
E. coli JCM1649
  MIC: >200 µM
E. coli CE-273
  MIC: 50 µM
S. enteritidis ATC14028
  MIC: 200 µM
E. coli CR-3
  MIC: 50 µM
B. sereus IFO3457
  MIC: >200 µM
S. enteritidis ATCC1891
  MIC: 100 µM
S. aureus IFO13276
  MIC: >200 µM
